IC50 data for 25 compounds are collected here from patent US20190119282A1, “IMIDAZOPYRIDAZINES USEFUL AS INHIBITORS OF THE PAR-2 SIGNALING PATHWAY” (Vertex Pharmaceuticals Incorporated, priority 2013, published 2019).

The structures appear in SMILES notation.

Experiment [1] concerns the target T1, PAR2 (HT-29 cells, trypsin activation) (Homo sapiens, UniProt P55085).
T1 construct: host or cells: HT-29 cells
T1 sequence (P55085 26-397): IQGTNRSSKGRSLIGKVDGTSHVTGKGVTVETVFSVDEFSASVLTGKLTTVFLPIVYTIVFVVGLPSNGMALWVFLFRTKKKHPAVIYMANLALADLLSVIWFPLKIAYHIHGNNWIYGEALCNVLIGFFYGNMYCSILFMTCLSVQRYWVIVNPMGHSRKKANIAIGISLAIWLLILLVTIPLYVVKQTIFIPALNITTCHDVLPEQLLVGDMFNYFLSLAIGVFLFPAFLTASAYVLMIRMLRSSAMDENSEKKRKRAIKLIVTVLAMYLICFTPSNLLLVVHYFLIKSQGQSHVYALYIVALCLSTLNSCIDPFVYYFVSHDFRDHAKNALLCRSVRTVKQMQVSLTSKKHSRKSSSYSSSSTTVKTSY
Kind of experiment: Ca FLIPR TETRA assay, ANTAGONIST mode, stimulation with 3.1 U/mL trypsin. Format: cell-based. To be noted: HT-29 cells, antagonist mode, stimulation with 3.1 U/mL trypsin. Summed up:
(§1)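 FLIPR Tetra Ca2+ read-out in HT-29 cells, calcium 5 dye. Compound preincubation 30 min r.t., with an initial read for agonist activity. Final activator levels: SLIGKV 8 μM, thrombin 1 U/mL, trypsin 3.1 U/mL, UTP 0.6 μM.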

Experiment [2] addresses T2, PAR2 (HT-29 cells, SLIGKV activation) (Homo sapiens, UniProt P55085).
T2 construct: host or cells: HT-29 cells
T2 sequence (P55085 26-397): T1 sequence (P55085 26-397)
Kind of experiment: Ca FLIPR TETRA assay, ANTAGONIST mode, stimulation with 8 μM SLIGKV. The conditions noted are these: HT-29 cells, antagonist mode, stimulation with 8 μM SLIGKV. The experiment is classed as cell-based. Summed up:
as §1

The test system of experiment [3] is Thrombin-stimulated Ca2+ response in HT-29 cells. In words: Ca FLIPR TETRA assay, ANTAGONIST mode, stimulation with 1 U/mL Thrombin. Format: cell-based, human. To be noted: Homo sapiens; HT-29 cells, antagonist mode, stimulation with 1 U/mL Thrombin. Summed up: as §1
Experiment [4] deals with UTP-stimulated Ca2+ response in HT-29 cells. In words: Ca FLIPR TETRA assay, ANTAGONIST mode, stimulation with 0.6 μM UTP. Format: cell-based, human. The conditions noted are these: Homo sapiens; HT-29 cells, antagonist mode, stimulation with 0.6 μM UTP. Summed up:
as §1

As for `Cc1ccc(-c2cc(C(C)(C)C)c3nc(C(=O)N4CCN(c5c[nH]c(C)n5)C(=O)C4(C)C)cn3n2)cc1` [Compound I-368], the IC50 in experiment [1] is 6.8 nM; in experiment [2], 5.2 nM; in experiment [3] it was > 1000 nM; in experiment [4], > 1000 nM.

As to `Cc1nc(N2CCN(C(=O)c3cn4nc(-c5ccc(C)c(F)c5)cc(C(C)(C)C)c4n3)C(C)(C)C2=O)c[nH]1` [Compound I-369], the IC50 in experiment [1] was 7.3 nM; in experiment [2] it was 5.4 nM; in experiment [3], > 1000 nM; in experiment [4], > 1000 nM.

Turning to `CC(C)c1cc(-c2ccc(C(F)(F)F)cc2)nn2cc(C(=O)N3CCN(C(=O)c4ncccn4)CC3(C)C)nc12` [Compound I-370], the IC50 in experiment [1] is 10.4 nM; in experiment [2], 7.7 nM; in experiment [3], > 1000 nM; in experiment [4], > 1000 nM.

As to `CC(C)c1cc(-c2ccc(C(F)(F)F)cc2)nn2cc(C(=O)N3CCN(C(=O)C4CC(C)(O)C4)CC3(C)C)nc12` (stereo not shown) [Compound I-371], the IC50 in experiment [1] was 1.6 nM; in experiment [2], 1.3 nM; in experiment [3], > 1000 nM; in experiment [4] it was > 1000 nM.

Take `Cc1nc(C(=O)N2CCN(C(=O)c3cn4nc(-c5ccc(C(F)(F)F)cc5)cc(C(C)C)c4n3)C(C)(C)C2)c[nH]1` [Compound I-372]: the IC50 in experiment [1] is 5.6 nM; in experiment [2], 4.5 nM; in experiment [3] it was > 1000 nM; in experiment [4], > 1000 nM.

For `Cc1ccc(-c2cc(C(C)C)c3nc(C(=O)N4CCN(C(=O)c5ncccn5)CC4(C)C)cn3n2)cc1F` [Compound I-373], the IC50 is 8.1 nM in experiment [1], 6.5 nM in experiment [2], > 1000 nM in experiment [3] and > 1000 nM in experiment [4].

Turning to `Cc1ccc(-c2cc(C(C)C)c3nc(C(=O)N4CCN(C(=O)c5ccn[nH]5)CC4(C)C)cn3n2)cc1F` [Compound I-374], the half-inhibitory concentration (IC50) was 1.6 nM in experiment [1], 1.4 nM in experiment [2], > 1000 nM in experiment [3] and > 1000 nM in experiment [4].

Regarding `Cc1ccc(-c2cc(C(C)C)c3nc(C(=O)N4CCN(C(=O)c5ccccn5)CC4(C)C)cn3n2)cc1F` [Compound I-375], the IC50 in experiment [1] is 3.8 nM; in experiment [2], 2.3 nM; in experiment [3], > 1000 nM; in experiment [4] it was > 1000 nM.

Turning to `Cc1nc(C(=O)N2CCN(C(=O)c3cn4nc(-c5ccc(C)c(F)c5)cc(C(C)C)c4n3)C(C)(C)C2)c[nH]1` [Compound I-376], the IC50 in experiment [1] was 3.2 nM; in experiment [2] it was 2 nM; in experiment [3], > 1000 nM; in experiment [4], > 1000 nM.

Take `Cc1cc(-c2cc(C(C)C)c3nc(C(=O)N4CCN(C(=O)c5ncccn5)CC4(C)C)cn3n2)ccc1F` [Compound I-377]: the IC50 in experiment [1] is 29 nM; in experiment [2], 19 nM; in experiment [3] it was > 1000 nM; in experiment [4], > 1000 nM.

In the case of `Cc1cc(-c2cc(C(C)C)c3nc(C(=O)N4CCN(C(=O)C5CC(C)(O)C5)CC4(C)C)cn3n2)ccc1F` (stereo not shown) [Compound I-378], the half-inhibitory concentration (IC50) in experiment [1] was 7.2 nM; in experiment [2] it was 5 nM; in experiment [3] it was > 1000 nM; in experiment [4] it was > 1000 nM.

As to `Cc1cc(-c2cc(C(C)C)c3nc(C(=O)N4CCN(C(=O)c5ccccn5)CC4(C)C)cn3n2)ccc1F` [Compound I-379], the IC50 was 10.5 nM in experiment [1], 9.4 nM in experiment [2], > 1000 nM in experiment [3] and > 1000 nM in experiment [4].

On to `Cc1nc(C(=O)N2CCN(C(=O)c3cn4nc(-c5ccc(F)c(C)c5)cc(C(C)C)c4n3)C(C)(C)C2)c[nH]1` [Compound I-380], for which the half-inhibitory concentration (IC50) in experiment [1] was 7.4 nM; in experiment [2], 8.3 nM; in experiment [3], > 1000 nM; in experiment [4], > 1000 nM.

For the compound `Cc1cc(-c2cc(C(C)(C)C)c3nc(C(=O)N4CCN(C(=O)c5ccn[nH]5)CC4(C)C)cn3n2)ccc1F` [Compound I-381], the half-maximal inhibitory concentration (IC50) in experiment [1] was 1.2 nM; in experiment [2], 1.3 nM; in experiment [3] it was > 1000 nM; in experiment [4] it was > 1000 nM.

As for `Cc1cc(C(=O)N2CCN(C(=O)c3cn4nc(-c5ccc(F)c(C)c5)cc(C(C)(C)C)c4n3)C(C)(C)C2)[nH]n1` [Compound I-382], the IC50 in experiment [1] is 0.7 nM; in experiment [2], 0.6 nM; in experiment [3], > 1000 nM; in experiment [4], > 1000 nM.

Turning to `Cc1nc(C(=O)N2CCN(C(=O)c3cn4nc(-c5ccc(F)c(C)c5)cc(C(C)(C)C)c4n3)C(C)(C)C2)c[nH]1` [Compound I-383], the IC50 is 2.9 nM in experiment [1], 1.9 nM in experiment [2], > 1000 nM in experiment [3] and > 1000 nM in experiment [4].

As for `Cc1cc(-c2cc(C(C)(C)C)c3nc(C(=O)N4CCN(C(=O)C5CC(C)(O)C5)CC4(C)C)cn3n2)ccc1F` (stereo not shown) [Compound I-384], the IC50 in experiment [1] was 0.8 nM; in experiment [2], 0.6 nM; in experiment [3], > 1000 nM; in experiment [4], > 1000 nM.

On to `Cc1nnc(C(=O)N2CCN(C(=O)c3cn4nc(-c5ccc(F)c(C)c5)cc(C(C)(C)C)c4n3)C(C)(C)C2)o1` [Compound I-385], for which the IC50 in experiment [1] was 4.3 nM; in experiment [2], 2.2 nM; in experiment [3] it was > 1000 nM; in experiment [4], > 1000 nM.

With `Cc1cc(-c2cc(C(C)(C)C)c3nc(C(=O)N4CCN(C(=O)c5ccccn5)CC4(C)C)cn3n2)ccc1F` [Compound I-386], the IC50 in experiment [1] is 2.6 nM; in experiment [2] it was 1.7 nM; in experiment [3] it was > 1000 nM; in experiment [4], > 1000 nM.

For the compound `Cc1cc(-c2cc(C(C)(C)C)c3nc(C(=O)N4CCN(C(=O)c5ncccn5)CC4(C)C)cn3n2)ccc1F` [Compound I-387], the IC50 was 3.1 nM in experiment [1], 1.4 nM in experiment [2], > 1000 nM in experiment [3] and > 1000 nM in experiment [4].

As to `Cc1cc(-c2cc(C(C)C)c3nc(C(=O)N4CCN(c5c[nH]cn5)C(=O)C4(C)C)cn3n2)ccc1F` [Compound I-388], the IC50 in experiment [1] was 15.5 nM; in experiment [2] it was 12.5 nM; in experiment [3], > 1000 nM; in experiment [4], > 1000 nM.

`Cc1nc(N2CCN(C(=O)c3cn4nc(-c5ccc(F)c(C)c5)cc(C(C)C)c4n3)C(C)(C)C2=O)c[nH]1` [Compound I-389]: the IC50 in experiment [1] is 25 nM; in experiment [2] it was 20 nM; in experiment [3], > 1000 nM; in experiment [4] it was > 1000 nM.

For the compound `Cc1cc(C(=O)N2CCN(C(=O)c3cn4nc(-c5ccc(C(F)(F)F)cc5)cc(C(C)C)c4n3)C(C)(C)C2)[nH]n1` [Compound I-390], the IC50 is 1.3 nM in experiment [1], 1 nM in experiment [2], > 1000 nM in experiment [3] and > 1000 nM in experiment [4].

For the compound `Cc1ccc(-c2cc(C(C)(C)C)c3nc(C(=O)N4CCN(C(=O)c5ccccn5)CC4(C)C)cn3n2)cc1` [Compound I-391], the IC50 in experiment [1] is 2.2 nM; in experiment [2], 1.8 nM; in experiment [3], > 1000 nM; in experiment [4], > 1000 nM.

For `Cc1ccc(-c2cc(C(C)(C)C)c3nc(C(=O)N4CCN(C(=O)c5ncccn5)CC4(C)C)cn3n2)cc1` [Compound I-392], the IC50 in experiment [1] was 2.5 nM; in experiment [2], 1.4 nM; in experiment [3] it was > 1000 nM; in experiment [4] it was > 1000 nM.
